In brackets after ≈: the same amount, converted by molar mass. Read-outs that look alike come from different tables or passages of the source.
Assays:
[1] = system: Candida albicans TIMM0136; test: Antifungal spectrum, liquid medium dilution method; format: cell-based
Experimental: (§1) The antifungal spectra of the above TKR1912-I and TKR1912-II against various microorganisms were determined. Using the liquid medium dilution method, the concentration causing a substantially complete inhibition of fungal growth was determined as minimal inhibitory concentration (μg/ml). Moreover, the minimal concentration (μg/ml) causing partial growth inhibition was determined and the results are presented in parentheses in Table 2. In the table, YNBG stands for YNBG medium comprising 0.67% of yeast nitrogen base (Difco) and 1.0% of glucose and BHI stands for BHI medium comprising brain-heart infusion bouillon (Nissui Pharmaceutical).

[2] = system: Cryptococcus neoformans TIMM0354; test: Antifungal spectrum, liquid medium dilution method; format: cell-based
Experimental: as §1

[3] = system: Aspergillus fumigatus TIMM1776; test: Antifungal spectrum, liquid medium dilution method; format: cell-based
Experimental: as §1

Candida kefyr TIMM0301 = test: Antifungal spectrum, liquid medium dilution method; format: cell-based; details: for MIC: Kluyveromyces marxianus
Experimental: as §1

Solubility in solvents = format: physicochemical
ICR mice = test: Toxicity after intraperitoneal administration to ICR mice; format: in vivo; details: 50 mg/kg
[4] = Candida albicans TIMM0136, YNBG medium
[5] = Aspergillus fumigatus TIMM1776, BHI medium
[6] = Candida kefyr TIMM0301, YNBG medium

| Compound | minimal concentration causing partial growth inhibition (in parentheses) [1, 4] | MIC ([1]; Candida albicans TIMM0136, YNBG medium, read-out: Minimal inhibitory concentration (substantially complete inhibition of fungal growth)) | MIC ([2]; Cryptococcus neoformans TIMM0354, YNBG medium, read-out: Minimal inhibitory concentration (substantially complete inhibition of fungal growth)) | minimal concentration causing partial growth inhibition (in parentheses) [3, 5] | MIC ([3]; Aspergillus fumigatus TIMM1776, BHI medium, read-out: Minimal inhibitory concentration (substantially complete inhibition of fungal growth)) | minimal concentration causing partial growth inhibition (in parentheses) (Candida kefyr TIMM0301; [6]) | MIC (Candida kefyr TIMM0301; Candida kefyr TIMM0301, YNBG medium, read-out: Minimal inhibitory concentration (substantially complete inhibition of fungal growth)) | solubility in hexane (Solubility in solvents) | solubility in methanol, chloroform, and water (Solubility in solvents) | toxic signs (ICR mice) | MIC ([1]; Candida albicans, TIMM0136, read-out: Minimal inhibitory concentration (substantially complete inhibition of fungal growth)) | minimal concentration causing partial growth inhibition (in parentheses) ([2]; Cryptococcus neoformans TIMM0354, YNBG medium) | MIC ([2]; Cryptococcus neoformans, TIMM0354, read-out: Minimal inhibitory concentration (substantially complete inhibition of fungal growth)) | MIC ([3]; Aspergillus fumigatus, TIMM1776, read-out: Minimal inhibitory concentration (substantially complete inhibition of fungal growth)) | MIC (Candida kefyr TIMM0301; TIMM0301, read-out: Minimal inhibitory concentration (substantially complete inhibition of fungal growth)) |
| --- | --- | --- | --- | --- | --- | --- | --- | --- | --- | --- | --- | --- | --- | --- | --- |
| CCCCCCCCCC/C=C/C1CC(C(=O)O)C(CC(=O)O)(C(=O)OC(C(=O)O)C(CC(=O)O)C(=O)O)O1 (stereo not drawn) [TKR1912-I] | (1.56) μg/ml | 3.13 µg/mL (≈ 5.6 µM) | 6.25 µg/mL (≈ 11.2 µM) | (100) μg/ml | > 100 µg/mL | (6.25) μg/ml | 12.5 µg/mL (≈ 22.4 µM) | practically insoluble | soluble | no toxic signs |  |  |  |  |  |
| CCCCCCCC/C=C/CC/C=C/C1CC(C(=O)O)C(CC(=O)O)(C(=O)OC(C(=O)O)C(CC(=O)O)C(=O)O)O1 (stereo not drawn) [TKR1912-II] | (0.78) μg/ml |  |  | (25) μg/ml |  | (1.56) μg/ml |  | practically insoluble | soluble | no toxic signs | 3.13 µg/mL (≈ 5.35 µM) | (6.25) μg/ml | > 100 µg/mL | > 100 µg/mL | 3.13 µg/mL (≈ 5.35 µM) |

— patent US6380245B1, “Antibiotics TKR1912-I and TKR1912-II and process for producing the same” (Takara Shuzo Co., Ltd., priority 1995, dated 2002)
